Reference: the OligoGym collection
Bases are written 5' to 3'; sugars and linkages follow in the same order, as letters with counts (s phosphorothioate, o phosphodiester; PS: all linkages phosphorothioate). C may stand for cytosine or 5-methylcytosine; the collection does not tell. l = locked nucleic acid (LNA); d = 2'-deoxy (DNA)

Molecular target: HIF1A
Assay: HeLa, 100 nM transfected, 24 h, mean of 3
Details: ASO

Row | Sequence | caspase activation (% of PBS control)
1 | GTTACTGCCTTCTTAC (sugars l1 d11 l1 d1 l2, PS) | 117
2 | TGGCAAGCATCCTGTA (sugars llldlddddddldddl, PS) | 253
3 | TGGCAAGCATCCTGTA (sugars ldldddddddddlldl, PS) | 281
4 | TGGCAAGCATCCT (sugars l1 d2 l1 d8 l1, PS) | 178
5 | GTTACTGCCTTCTTAC (sugars l4 d7 l3 d1 l1, PS) | 444
6 | TGGCAAGCATCCT (sugars l2 d1 l1 d8 l1, PS) | 383
7 | TGGCAAGCATCCTGTA (sugars llddlddddddldddl, PS) | 383
8 | TGGCAAGCATCCTGTA (sugars ldlldddddddddldl, PS) | 297
9 | GTTACTGCCTTCTTAC (sugars ldlddddddddddldl, PS) | 119
10 | GCAAGCATCCTGT (sugars l1 d1 l2 d7 l2, PS) | 220
11 | TGGCAAGCATCCTGTA (sugars ldldlddddddllldl, PS) | 261
12 | ACTGCCTTCTTAC (sugars l1 d1 l2 d8 l1, PS) | 222
13 | TGGCAAGCATCCTGTA (sugars l1 d2 l1 d8 l4, PS) | 398
14 | TGGCAAGCATCCTGTA (sugars l5 d7 l2 d1 l1, PS) | 381
15 | GTTACTGCCTTCTTAC (sugars l2 d10 l1 d1 l2, PS) | 128
16 | GCAAGCATCCTGT (sugars lddlddddddldl, PS) | 109
17 | GTTACTGCCTTCTTAC (sugars ldlldddddddldldl, PS) | 187
18 | CAAGCATCCTGTA (sugars l1 d9 l1 d1 l1, PS) | 92.1
19 | TGGCAAGCATCCT (sugars l4 d6 l1 d1 l1, PS) | 480
20 | ACTGCCTTCTTAC (sugars l2 d1 l1 d8 l1, PS) | 177
21 | GTTACTGCCTTCTTAC (sugars llldlddddddldldl, PS) | 316
22 | TGGCAAGCATCCTGTA (sugars ldldldddddddlddl, PS) | 226
23 | TGGCAAGCATCCTGTA (sugars ldldlddddddddldl, PS) | 176
24 | GTTACTGCCTTCTTAC (sugars lldldddddddldlll, PS) | 170
25 | TGGCAAGCATCCTGTA (sugars ldlddddddddlldll, PS) | 227

Row | Sequence | caspase activation (% of PBS control)
26 | CAAGCATCCTGTA (sugars l3 d7 l1 d1 l1, PS) | 302
27 | GTTACTGCCTTCTTAC (sugars l4 d8 l4, PS) | 272
28 | TGGCAAGCATCCTGTA (sugars l2 d9 l3 d1 l1, PS) | 352
29 | GTTACTGCCTTCTTAC (sugars ldldldddddddllll, PS) | 257
30 | TACTGCCTTCTTA (sugars l2 d10 l1, PS) | 152
31 | TGGCAAGCATCCTGTA (sugars ldlddddddddldlll, PS) | 195
32 | GTTACTGCCTTCTTAC (sugars l3 d1 l1 d9 l2, PS) | 185
33 | TGGCAAGCATCCTGTA (sugars ldllldddddddldll, PS) | 459
34 | TGGCAAGCATCCTGTA (sugars l2 d11 l1 d1 l1, PS) | 369
35 | TGGCAAGCATCCTGTA (sugars l3 d8 l1 d3 l1, PS) | 230
36 | CAAGCATCCTGTA (sugars l1 d1 l2 d6 l3, PS) | 134
37 | GTTACTGCCTTCTTAC (sugars l1 d2 l2 d6 l5, PS) | 485
38 | TGGCAAGCATCCTGTA (sugars lddlddddddddldll, PS) | 371
39 | GTTACTGCCTTCTTAC (sugars l1 d1 l3 d10 l1, PS) | 323
40 | GTTACTGCCTTCTTAC (sugars ldlllddddddlddll, PS) | 425
41 | GTTACTGCCTTCT (sugars l1 d1 l1 d9 l1, PS) | 117
42 | GTTACTGCCTTCTTAC (sugars lddllddddddldddl, PS) | 188
43 | TGGCAAGCATCCT (sugars l4 d6 l3, PS) | 361
44 | GTTACTGCCTTCTTAC (sugars l5 d8 l3, PS) | 512
45 | GTTACTGCCTTCT (sugars l3 d7 l3, PS) | 267
46 | TGGCAAGCATCCTGTA (sugars lldddddddddldldl, PS) | 423
47 | GTTACTGCCTTCTTAC (sugars lddldddddddldlll, PS) | 154
48 | TGGCAAGCATCCT (sugars lddlddddddldl, PS) | 132
49 | TGGCAAGCATCCTGTA (sugars ldlllddddddldldl, PS) | 455
50 | GTTACTGCCTTCTTAC (sugars lldllddddddlddll, PS) | 261

Row | Sequence | caspase activation (% of PBS control)
51 | GTTACTGCCTTCT (sugars l4 d8 l1, PS) | 142
52 | GTTACTGCCTTCTTAC (sugars l1 d3 l1 d8 l3, PS) | 174
53 | ACTGCCTTCTTAC (sugars lddlddddddldl, PS) | 118
54 | GTTACTGCCTTCTTAC (sugars l4 d8 l2 d1 l1, PS) | 284
55 | GTTACTGCCTTCTTAC (sugars lldlddddddddldll, PS) | 139
56 | GTTACTGCCTTCTTAC (sugars l4 d7 l2 d2 l1, PS) | 264
57 | TGGCAAGCATCCTGTA (sugars llddldddddddlddl, PS) | 354
58 | TGGCAAGCATCCTGTA (sugars ldddldddddddldll, PS) | 245
59 | TTACTGCCTTCTT (sugars l4 d6 l1 d1 l1, PS) | 308
60 | GTTACTGCCTTCTTAC (sugars l2 d1 l2 d6 l5, PS) | 474
61 | TGGCAAGCATCCTGTA (sugars l1 d10 l3 d1 l1, PS) | 381
62 | GTTACTGCCTTCT (sugars l4 d6 l3, PS) | 356
63 | GTTACTGCCTTCTTAC (sugars l4 d7 l1 d2 l2, PS) | 255
64 | TGGCAAGCATCCTGTA (sugars lddlldddddddlddl, PS) | 461
65 | TGGCAAGCATCCTGTA (sugars l2 d2 l1 d7 l4, PS) | 366
66 | TACTGCCTTCTTA (sugars l3 d7 l3, PS) | 489
67 | TGGCAAGCATCCTGTA (sugars l1 d1 l2 d11 l1, PS) | 324
68 | GTTACTGCCTTCTTAC (sugars l1 d2 l1 d9 l3, PS) | 131
69 | GTTACTGCCTTCTTAC (sugars l2 d2 l1 d7 l4, PS) | 324
70 | GTTACTGCCTTCTTAC (sugars ldldlddddddldldl, PS) | 251
71 | TGGCAAGCATCCT (sugars l1 d1 l1 d8 l2, PS) | 145
72 | GTTACTGCCTTCTTAC (sugars l5 d7 l1 d1 l2, PS) | 454
73 | CAAGCATCCTGTA (sugars l1 d1 l2 d8 l1, PS) | 145
74 | GTTACTGCCTTCTTAC (sugars l3 d11 l2, PS) | 136
75 | TACTGCCTTCTTA (sugars l2 d9 l2, PS) | 184

Row | Sequence | caspase activation (% of PBS control)
76 | GTTACTGCCTTCT (sugars l2 d1 l1 d7 l2, PS) | 134
77 | GTTACTGCCTTCTTAC (sugars lddldddddddlddll, PS) | 129
78 | GCAAGCATCCTGT (sugars l1 d1 l2 d6 l3, PS) | 186
79 | TACTGCCTTCTTA (sugars l1 d2 l1 d7 l2, PS) | 156
80 | GGCAAGCATCCTG (sugars l1 d1 l1 d9 l1, PS) | 339
81 | TTACTGCCTTCTT (sugars l1 d9 l1 d1 l1, PS) | 127
82 | GTTACTGCCTTCTTAC (sugars lldllddddddldddl, PS) | 260
83 | TGGCAAGCATCCT (sugars l4 d7 l2, PS) | 447
84 | TACTGCCTTCTTA (sugars l3 d7 l1 d1 l1, PS) | 368
85 | TGGCAAGCATCCT (sugars l1 d9 l1 d1 l1, PS) | 242
86 | GGCAAGCATCCTG (sugars l2 d8 l1 d1 l1, PS) | 327
87 | TGGCAAGCATCCTGTA (sugars ldlllddddddldlll, PS) | 476
88 | TGGCAAGCATCCTGTA (sugars l1 d10 l2 d1 l2, PS) | 444
89 | GCAAGCATCCTGT (sugars ldldddddddldl, PS) | 181
90 | GGCAAGCATCCTG (sugars l1 d1 l1 d8 l2, PS) | 685
91 | TGGCAAGCATCCTGTA (sugars l1 d1 l1 d11 l2, PS) | 135
92 | GCAAGCATCCTGT (sugars l2 d1 l1 d8 l1, PS) | 314
93 | TGGCAAGCATCCT (sugars l3 d9 l1, PS) | 287
94 | GGCAAGCATCCTG (sugars ldldddddddldl, PS) | 344
95 | TGGCAAGCATCCTGTA (sugars l1 d12 l3, PS) | 217
96 | TGGCAAGCATCCTGTA (sugars ldlllddddddlldll, PS) | 437
97 | TGGCAAGCATCCTGTA (sugars lldlldddddddlddl, PS) | 459
98 | TTACTGCCTTCTT (sugars l3 d7 l1 d1 l1, PS) | 205
99 | TGGCAAGCATCCTGTA (sugars lddldddddddldlll, PS) | 303
100 | GTTACTGCCTTCTTAC (sugars ldlllddddddddldl, PS) | 438
